In patent US20160228444A1, “NUCLEOSIDE ANALOGS AND USES THEREOF” (Ramot at Tel-Aviv University Ltd., priority 2015, published 2016):
Entries after “also recorded” stand apart in the source; their conditions may differ.

Legend:
[1] = system: murine mammary carcinoma 4T1; assay: FACS viability, annexin V-FITC / PI; type: cell-based; conditions: AN446 24 h; 200 nM Dox 5 h; combination compared to Dox alone; FIG. 1C
Experimental: (§1) Cell viability by flow cytometry analysis (FACS) analysis was determined using the Mebcyto apoptosis kit (MBL-Japan). The cell lines 4T1, U251 (2×10^5 cells/well), astrocytes and the cardiomyoblastic cell line H9C2 (5×10^5 cells/well) were seeded in six-well plates. Following treatment they were trypsinized, washed with PBS, resuspended in […] of binding buffer and double-stained with annexin V-FITC and propidium iodide (PI) according to the manufacturer's instructions. The stained cells were subjected to FACS analyses (Calibur cytometer, Becton Dickinson) where 30,000 cells were allowed to flow for each determination point and the percentage of cells in each state (viability or death) was defined by their distribution in fluorescence dot-plots using WinMdi 2.8 software (Scripps Research Institute, La-Jolla, USA).
(§2) The apoptotic effect of AN446, Dox and their combination was evaluated in U251 and 4T1 cancer cells, and in the non-cancerous rat cardiomyoblast cell line (H9C2) and in primary rat astrocytes, using procedures previously described for AN7 [Tarasenko et al., Invest New Drugs 2012, 30:130-143].

[2] = system: U251 MG human glioma cells; assay: FACS viability, annexin V-FITC / PI; type: cell-based
Experimental: as §1, §2

IL-6 = assay: LPS-induced IL-6 secretion by normal human astrocytes (sandwich-ELISA); type: cell-based; conditions: 20 μM, LPS 1 μg/ml 24 hours, FIG. 16
Experimental: Normal human astrocytes (NHA) were treated with 20 μM AN446, and lipopolysaccharide (1 μg/ml) was then added for 24 hours, and the supernatants of the cultured cells were collected. IL-6 concentrations in cell culture supernatants were quantified by sandwich-ELISA using specific pairs of mAb antibodies (R&D).

IL-10 = IL-10 in supernatant of LPS-treated THP1 cells (ELISA); type: cell-based; conditions: 1 μg/ml LPS, FIG. 7B
Experimental: (§3) The effect of AN446 on inflammation-associated pathways was evaluated in the monocytic THP1 cell line and in the MDA-MB-231 breast carcinoma cell line. Supernatants of treated THP1 cells were collected and IL-6, IL-10 and TNF-α concentrations were quantified by ELISA (R&D systems). TLR4 expression in THP1 cells was assessed using fluorescent anti-TLR4 antibodies and FACS analysis. In addition, gene expression for MCP-1, TNF-α and TLR4 in MDA-MB-231 was evaluated by qRT-PCT, following treatment with AN446 and/or paclitaxel.

astrocytes = assay: ROS production (DCF-DA, flow cytometry); type: cell-based, rat; conditions: FIG. 1D
Experimental: (§4) ROS were measured in live cells by monitoring the oxidation of DCF-DA (a cell-permeable probe), which undergoes deacetylation by cellular esterases and fluoresces upon oxidation by ROS. U251 MG (2×10^5 cells/six-well plates), astrocytes or H9C2 (5×10^5 cells/six-well plates) were treated as specified, incubated with […] DCF-DA for 30 min at 37° C., washed with PBS and analyzed (10^4 cells) by flow cytometry using a 488 nm excitation beam (Calibur cytometer, Becton Dickinson). The percentage of cells stained positively for DCF was determined with CellQuest software (BD Biosciences, San Jose, Calif., USA).
(§5) To gain insights into the mechanism of cell-type specific effects, ROS production in cancer cells and in non-cancer cells after treatment for 5-6 h with AN446, Dox and AN446+Dox, were assessed by staining the cells with the membrane-permeable fluorescent dye DCF-DA.

H9C2 cells = assay: ROS production (DCF-DA, flow cytometry); type: cell-based, rat; conditions: FIG. 1D
Experimental: as §4, §5

U251 cells = assay: Hoechst viability assay 72 h / median-effect combination study; conditions: Homo sapiens, U-251, 72 h, read-out: IC50 value for viability in U251 cells after 72 hours
Experimental: Hoechst assay: 22RV-1, MCF-7, MCF-7DX, 4T1, U251, and T47D cells (3×10^3 cells/well) and NCI-N87 (8×10^3 cells/well) were seeded in tissue culture in growth medium for 24 h in 96-well plates (in triplicate) and then exposed to different concentrations (titration) of the tested drug for 72 h at 37° C. The plates were then rinsed with PBS and fixed with 100 ml of 70% ethanol for 30 min. […] The fluorescence was measured (excitation at 390 nm and emission at 460 nm) with a Synergy III Fluorometer-Elisa reader (BioTek Instruments, Inc. Germany).
The Median Effect Analysis (MEA) for a constant combination ratio was used for drugs interaction and the combination index (CI) determination.
The average values of three independent experiments were calculated and analyzed with CalcuSyn software.

[3] = system: 10 different cancer cell lines; assay: Viability assay (Hoechst for adherent cells, MTT for suspension cells), 72 h
Experimental: Hoechst assay: 22RV-1, MCF-7, MCF-7DX, 4T1, U251, and T47D cells (3×10^3 cells/well) and NCI-N87 (8×10^3 cells/well) were seeded in tissue culture in growth medium for 24 h in 96-well plates (in triplicate) and then exposed to different concentrations (titration) of the tested drug for 72 h at 37° C. The plates were then rinsed with PBS and fixed with 100 ml of 70% ethanol for 30 min. […] The fluorescence was measured (excitation at 390 nm and emission at 460 nm) with a Synergy III Fluorometer-Elisa reader (BioTek Instruments, Inc. Germany). The viability of cells grown in suspension was measured by the MTT assay. HL-60, Daudi and Jurkat cells were seeded (5×10^3 cells/well) in 96-well plates in growth medium and immediately exposed to different concentrations (titration) of the tested drugs (in triplicate). After 72 h incubation, the MTT reagent in PBS (10 ml of 5 mg/ml) was added to the cell suspension and incubated for an additional 3 h. Then, 100 ml of 0.04 M HCl in isopropanol was added and the absorbance at 570 nm measured using a Synergy III Fluorometer-spectrophotometer ELISA reader.

TLR4 = conditions: 24 hours, concentrations based on the IC50, FIG. 15
pH2AX in U251 cells = assay: Phosphorylated H2AX (Western blot), 24 or 48 hours; type: cell-based, human; conditions: FIG. 13A
Experimental: The effects of the abovementioned HDAC inhibitors on DNA damage and repair were then assessed by evaluating changes in levels of phosphorylated histone H2AX (pH2AX), a marker of DNA double-strand breaks, and Rad51, a marker of homologous recombination-guided DNA repair of double-strand breaks [Nagathihalli & Nagaraju, Biochim Biophys Acta 2011, 1816:209-218; Rogakou et al., J Biol Chem 1998, 273:5858-5868].
U251 and H9C2 cells were treated with the HDAC inhibitors for 24 or 48 hours, and then subjected to Western blot analysis.

U251 glioblastoma cells = assay: ROS production (DCF-DA, flow cytometry); type: cell-based, human; conditions: 5-6 h treatment, FIG. 1D
Experimental: as §4, §5

MyLa CTLC cell line = assay: MTT cell viability assay, 48 hours; type: cell-based, human
Experimental: (§6) The MyLa CTLC cell line (originating from an indolent mycosis fungoides patient) and the Hut-78 CTLC cell line (originating from an aggressive Sézary patient) were used to evaluate toxicity towards cancer cells, and peripheral blood lymphocytes (PBLs) from healthy volunteers were used to evaluate toxicity towards noncancerous cells.
(§7) Cell viability was determined by an MTT cell viability assay after 48 hours. MyLa cells (10^4 cells/well), Hut78 cells (5×10^3 cells/well) and normal PBLs (10^5 cells/well) were seeded in 96 well-plates. The PBLs were activated with 40 μg/10^6 cells of phytohemagglutinine (PHA) for 24 h before the experiment.

Hut-78 CTLC cell line = assay: MTT cell viability assay, 48 hours; type: cell-based, human
Experimental: as §6, §7

TNF-α = TNF-α in supernatant of LPS-treated THP1 cells (ELISA); type: cell-based; conditions: 1 μg/ml LPS, AN446 20 or 40 μM, FIG. 7B
Experimental: as §3

CCCC(CCC)C(=O)Nc1nc2c(ncn2COCCOC(=O)C(CCC)CCC)c(=O)[nH]1 [AN446, N-valproyl-9-(2-valproyloxy)ethoxymethyl-guanine]
viability / mortality of 4T1 cells [1]: significantly enhanced the mortality
cell death in U251 glioblastoma cells ([2]; 24, 48 or 72 hours, each inhibitor at its U251 IC50, FIG. 9, listed as valprostat): effective at inducing cell death in glioblastoma cells after 24, 48 or 72 hours; also recorded: particularly more effective than the other tested HDAC inhibitors at inducing cell death after 24 hours
viability / mortality of U251 cells ([2]; AN446 24 h, 200 nM Dox 5 h, combination compared to Dox alone, FIG. 1C): significantly enhanced the mortality
therapeutic index (ratio of cancer cell mortality to cardiomyoblast mortality) ([2]; U251 vs H9C2, at each time point (24, 48, 72 hours), FIG. 11): more than 2
lipopolysaccharide-induced secretion of IL-6 by human astrocytes (IL-6): inhibited
expression of IL-10 (IL-10): doubled
ROS production and mortality in Dox-treated astrocytes (astrocytes; added to 200 nM Dox): attenuated ROS production and mortality
ROS production in astrocytes (astrocytes; single agent): did not induce ROS production
ROS production and mortality in Dox-treated H9C2 cells (H9C2 cells; added to 200 nM Dox): attenuated ROS production and mortality
ROS production in H9C2 cells (H9C2 cells; single agent): did not induce ROS production
IC50 (U251 cells): 20 µM
IC50 ([3]; 72 h, read-out: IC50 (cell viability)): 20 to 46 µM
potency in reducing the viability of cancer cells relative to AN7 ([3]; from IC50 values, FIG. 1A): 2-5 fold
TLR4 expression in MDA-231 cells (TLR4): considerably more effective than valproic acid at repressing TLR4
pH2AX levels in U251 cancer cells (pH2AX in U251 cells): considerably more effective than the other HDAC inhibitors at increasing pH2AX levels after 48 hours
percentage of ROS positive U251 cells (U251 glioblastoma cells): increased the percentage of ROS positive U251 glioblastoma cells significantly more than Dox
IC50 (MyLa CTLC cell line; Homo sapiens, 48 h, read-out: IC50 MyLa): 40 ± 2.3 µM
toxicity to MyLa cells relative to normal PBLs (MyLa CTLC cell line; from Table 1 IC50 values): about 5 fold
IC50 (Hut-78 CTLC cell line; Homo sapiens, HuT78, 48 h, read-out: IC50 HUT78): 21 ± 1.3 µM
toxicity to Hut-78 cells relative to normal PBLs (Hut-78 CTLC cell line; from Table 1 IC50 values): about 10 fold
LPS-induced expression of TNF-α (TNF-α): suppressed
